Patent publication US20230017045A1, “PYRIDINE AND PYRIMIDINE CARBOXYLATE HERBICIDES AND METHODS OF USE THEREOF” (Dow AgroSciences LLC, priority 2017, published 2023)

test system: test plant species; assay: Post-emergent herbicidal activity test (greenhouse, foliar spray, visual growth reduction); assay type: in vivo; conditions: post-emergence, 336 h, ALOMY: blackgrass (Alopecurus myosuroides), 140 g ai/ha, 14 days after application, read-out: Visual Growth Reduction (%) 14 Days After Application, ALOMY
Outline: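 Visual scoring 14 d after treatment (0 = no injury, 100 = complete control) against nontreated and solvent-blank plants gave percent growth reduction. Foliar application used a track sprayer delivering 187 L/ha to seedlings at first or second true leaf stage, grown at 23–29 °C day, ~15 h photoperiod.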

| Structure (SMILES) | pest or weed control at 140 g/ha [%] |
| --- | --- |
| COC(=O)c1nc(-c2ccc(C(F)(F)F)cc2Cl)cc(C#N)c1Cl [F11, Methyl 3-chloro-6-(2-chloro-4-(trifluoromethyl)phenyl)-4-cyanopicolinate] | 0 to 29 |

same assay, conditions: post-emergence, 336 h, AMARE: redroot pigweed (Amaranthus retroflexus), 140 g ai/ha, 14 days after application, read-out: Visual Growth Reduction (%) 14 Days After Application, AMARE

| Structure (SMILES) | pest or weed control at 140 g/ha [%] |
| --- | --- |
| COC(=O)c1nc(-c2ccc(C(F)(F)F)cc2Cl)cc(C#N)c1Cl [F11, Methyl 3-chloro-6-(2-chloro-4-(trifluoromethyl)phenyl)-4-cyanopicolinate] | 0 to 29 |

same assay, conditions: post-emergence, 336 h, AVEFA: wild oat (Avena fatua), 140 g ai/ha, 14 days after application, read-out: Visual Growth Reduction (%) 14 Days After Application, AVEFA

| Structure (SMILES) | pest or weed control at 140 g/ha [%] |
| --- | --- |
| COC(=O)c1nc(-c2ccc(C(F)(F)F)cc2Cl)cc(C#N)c1Cl [F11, Methyl 3-chloro-6-(2-chloro-4-(trifluoromethyl)phenyl)-4-cyanopicolinate] | 0 to 29 |

same assay, conditions: post-emergence, 336 h, CHEAL: lambsquarters (Chenopodium album), 140 g ai/ha, 14 days after application, read-out: Visual Growth Reduction (%) 14 Days After Application, CHEAL

| Structure (SMILES) | pest or weed control at 140 g/ha [%] |
| --- | --- |
| COC(=O)c1nc(-c2ccc(C(F)(F)F)cc2Cl)cc(C#N)c1Cl [F11, Methyl 3-chloro-6-(2-chloro-4-(trifluoromethyl)phenyl)-4-cyanopicolinate] | 0 to 29 |

same assay, conditions: post-emergence, 336 h, CIRAR: canada thistle (Cirsium arvense), 140 g ai/ha, 14 days after application, read-out: Visual Growth Reduction (%) 14 Days After Application, CIRAR

| Structure (SMILES) | pest or weed control at 140 g/ha [%] |
| --- | --- |
| COC(=O)c1nc(-c2ccc(C(F)(F)F)cc2Cl)cc(C#N)c1Cl [F11, Methyl 3-chloro-6-(2-chloro-4-(trifluoromethyl)phenyl)-4-cyanopicolinate] | 30 to 44 |

same assay, conditions: post-emergence, 336 h, CYPES: yellow nutsedge (Cyperus esculentus), 140 g ai/ha, 14 days after application, read-out: Visual Growth Reduction (%) 14 Days After Application, CYPES

| Structure (SMILES) | pest or weed control at 140 g/ha [%] |
| --- | --- |
| COC(=O)c1nc(-c2ccc(C(F)(F)F)cc2Cl)cc(C#N)c1Cl [F11, Methyl 3-chloro-6-(2-chloro-4-(trifluoromethyl)phenyl)-4-cyanopicolinate] | 0 to 29 |

same assay, conditions: post-emergence, 336 h, DIGSA: crabgrass (Digitaria sanguinalis), 140 g ai/ha, 14 days after application, read-out: Visual Growth Reduction (%) 14 Days After Application, DIGSA

| Structure (SMILES) | pest or weed control at 140 g/ha [%] |
| --- | --- |
| COC(=O)c1nc(-c2ccc(C(F)(F)F)cc2Cl)cc(C#N)c1Cl [F11, Methyl 3-chloro-6-(2-chloro-4-(trifluoromethyl)phenyl)-4-cyanopicolinate] | 0 to 29 |

same assay, conditions: post-emergence, 336 h, ECHCG: barnyardgrass (Echinochloa crus-galli), 140 g ai/ha, 14 days after application, read-out: Visual Growth Reduction (%) 14 Days After Application, ECHCG

| Structure (SMILES) | pest or weed control at 140 g/ha [%] |
| --- | --- |
| Cc1cnc(-c2ccc(Cl)c(C(=O)O)n2)c(F)c1 [F208, 5-Chloro-3′-fluoro-5′-methyl-[2,2′-bipyridine]-6-carboxylic acid] | 0 to 29 |

same assay, conditions: post-emergence, 336 h, IPOHE: ivy-leaf morning glory (Ipomoea hederacea), 140 g ai/ha, 14 days after application, read-out: Visual Growth Reduction (%) 14 Days After Application, IPOHE

| Structure (SMILES) | pest or weed control at 140 g/ha [%] |
| --- | --- |
| Cc1cnc(-c2ccc(Cl)c(C(=O)O)n2)c(F)c1 [F208, 5-Chloro-3′-fluoro-5′-methyl-[2,2′-bipyridine]-6-carboxylic acid] | 0 to 29 |

same assay, conditions: post-emergence, 336 h, KCHSC: kochia (Bassia scoparia), 140 g ai/ha, 14 days after application, read-out: Visual Growth Reduction (%) 14 Days After Application, KCHSC

| Structure (SMILES) | pest or weed control at 140 g/ha [%] |
| --- | --- |
| Cc1cnc(-c2ccc(Cl)c(C(=O)O)n2)c(F)c1 [F208, 5-Chloro-3′-fluoro-5′-methyl-[2,2′-bipyridine]-6-carboxylic acid] | 0 to 29 |

same assay, conditions: post-emergence, 336 h, ORYSA: rice (Oryza sativa), 140 g ai/ha, 14 days after application, read-out: Visual Growth Reduction (%) 14 Days After Application, ORYSA

| Structure (SMILES) | pest or weed control at 140 g/ha [%] |
| --- | --- |
| Cc1cnc(-c2ccc(Cl)c(C(=O)O)n2)c(F)c1 [F208, 5-Chloro-3′-fluoro-5′-methyl-[2,2′-bipyridine]-6-carboxylic acid] | 0 to 29 |

same assay, conditions: post-emergence, 336 h, SETFA: giant foxtail (Setaria faberi), 140 g ai/ha, 14 days after application, read-out: Visual Growth Reduction (%) 14 Days After Application, SETFA

| Structure (SMILES) | pest or weed control at 140 g/ha [%] |
| --- | --- |
| Cc1cnc(-c2ccc(Cl)c(C(=O)O)n2)c(F)c1 [F208, 5-Chloro-3′-fluoro-5′-methyl-[2,2′-bipyridine]-6-carboxylic acid] | 0 to 29 |

same assay, conditions: post-emergence, 336 h, SORVU: grain sorghum (Sorghum vulgare), 140 g ai/ha, 14 days after application, read-out: Visual Growth Reduction (%) 14 Days After Application, SORVU

| Structure (SMILES) | pest or weed control at 140 g/ha [%] |
| --- | --- |
| Cc1cnc(-c2ccc(Cl)c(C(=O)O)n2)c(F)c1 [F208, 5-Chloro-3′-fluoro-5′-methyl-[2,2′-bipyridine]-6-carboxylic acid] | 0 to 29 |

same assay, conditions: post-emergence, 336 h, STEME: common chickweed (Stellaria media), 140 g ai/ha, 14 days after application, read-out: Visual Growth Reduction (%) 14 Days After Application, STEME

| Structure (SMILES) | pest or weed control at 140 g/ha [%] |
| --- | --- |
| Cc1cnc(-c2ccc(Cl)c(C(=O)O)n2)c(F)c1 [F208, 5-Chloro-3′-fluoro-5′-methyl-[2,2′-bipyridine]-6-carboxylic acid] | 0 to 29 |

same assay, conditions: post-emergence, 336 h, TRZAS: wheat, spring (Triticum aestivum), 140 g ai/ha, 14 days after application, read-out: Visual Growth Reduction (%) 14 Days After Application, TRZAS

| Structure (SMILES) | pest or weed control at 140 g/ha [%] |
| --- | --- |
| Cc1cnc(-c2ccc(Cl)c(C(=O)O)n2)c(F)c1 [F208, 5-Chloro-3′-fluoro-5′-methyl-[2,2′-bipyridine]-6-carboxylic acid] | 0 to 29 |

same assay, conditions: post-emergence, 336 h, barnyardgrass (Echinochloa crus-galli), 14 Days After Application, 140 g ai/ha, read-out: Visual Growth Reduction (%) ECHCG

| Structure (SMILES) | pest or weed control at 140 g/ha [%] |
| --- | --- |
| COC(=O)c1nc(-c2ccc(C(F)(F)F)cc2Cl)cc(C#N)c1Cl [F11, Methyl 3-chloro-6-(2-chloro-4-(trifluoromethyl)phenyl)-4-cyanopicolinate] | 0 to 29 |

same assay, conditions: post-emergence, 336 h, blackgrass (Alopecurus myosuroides), 14 Days After Application, 140 g ai/ha, read-out: Visual Growth Reduction (%) ALOMY

| Structure (SMILES) | pest or weed control at 140 g/ha [%] |
| --- | --- |
| Cc1cnc(-c2ccc(Cl)c(C(=O)O)n2)c(F)c1 [F208, 5-Chloro-3′-fluoro-5′-methyl-[2,2′-bipyridine]-6-carboxylic acid] | 0 to 29 |

same assay, conditions: post-emergence, 336 h, canada thistle (Cirsium arvense), 14 Days After Application, 140 g ai/ha, read-out: Visual Growth Reduction (%) CIRAR

| Structure (SMILES) | pest or weed control at 140 g/ha [%] |
| --- | --- |
| Cc1cnc(-c2ccc(Cl)c(C(=O)O)n2)c(F)c1 [F208, 5-Chloro-3′-fluoro-5′-methyl-[2,2′-bipyridine]-6-carboxylic acid] | 0 to 29 |

same assay, conditions: post-emergence, 336 h, crabgrass (Digitaria sanguinalis), 14 Days After Application, 140 g ai/ha, read-out: Visual Growth Reduction (%) DIGSA

| Structure (SMILES) | pest or weed control at 140 g/ha [%] |
| --- | --- |
| Cc1cnc(-c2ccc(Cl)c(C(=O)O)n2)c(F)c1 [F208, 5-Chloro-3′-fluoro-5′-methyl-[2,2′-bipyridine]-6-carboxylic acid] | 0 to 29 |

same assay, conditions: post-emergence, 336 h, giant foxtail (Setaria faberi), 14 Days After Application, 140 g ai/ha, read-out: Visual Growth Reduction (%) SETFA

| Structure (SMILES) | pest or weed control at 140 g/ha [%] |
| --- | --- |
| COC(=O)c1nc(-c2ccc(C(F)(F)F)cc2Cl)cc(C#N)c1Cl [F11, Methyl 3-chloro-6-(2-chloro-4-(trifluoromethyl)phenyl)-4-cyanopicolinate] | 0 to 29 |

same assay, conditions: post-emergence, 336 h, ivy-leaf morning glory (Ipomoea hederacea), 14 Days After Application, 140 g ai/ha, read-out: Visual Growth Reduction (%) IPOHE

| Structure (SMILES) | pest or weed control at 140 g/ha [%] |
| --- | --- |
| COC(=O)c1nc(-c2ccc(C(F)(F)F)cc2Cl)cc(C#N)c1Cl [F11, Methyl 3-chloro-6-(2-chloro-4-(trifluoromethyl)phenyl)-4-cyanopicolinate] | 30 to 44 |

same assay, conditions: post-emergence, 336 h, johnsongrass (Sorghum vulgare), 14 Days After Application, 140 g ai/ha, read-out: Visual Growth Reduction (%) SORVU

| Structure (SMILES) | pest or weed control at 140 g/ha [%] |
| --- | --- |
| COC(=O)c1nc(-c2ccc(C(F)(F)F)cc2Cl)cc(C#N)c1Cl [F11, Methyl 3-chloro-6-(2-chloro-4-(trifluoromethyl)phenyl)-4-cyanopicolinate] | 0 to 29 |

same assay, conditions: post-emergence, 336 h, kochia (Bassia scoparia), 14 Days After Application, 140 g ai/ha, read-out: Visual Growth Reduction (%) KCHSC

| Structure (SMILES) | pest or weed control at 140 g/ha [%] |
| --- | --- |
| COC(=O)c1nc(-c2ccc(C(F)(F)F)cc2Cl)cc(C#N)c1Cl [F11, Methyl 3-chloro-6-(2-chloro-4-(trifluoromethyl)phenyl)-4-cyanopicolinate] | 0 to 29 |

same assay, conditions: post-emergence, 336 h, lambsquarters (Chenopodium album), 14 Days After Application, 140 g ai/ha, read-out: Visual Growth Reduction (%) CHEAL

| Structure (SMILES) | pest or weed control at 140 g/ha [%] |
| --- | --- |
| Cc1cnc(-c2ccc(Cl)c(C(=O)O)n2)c(F)c1 [F208, 5-Chloro-3′-fluoro-5′-methyl-[2,2′-bipyridine]-6-carboxylic acid] | 85 to 94 |

same assay, conditions: post-emergence, 336 h, redroot pigweed (Amaranthus retroflexus), 14 Days After Application, 140 g ai/ha, read-out: Visual Growth Reduction (%) AMARE

| Structure (SMILES) | pest or weed control at 140 g/ha [%] |
| --- | --- |
| Cc1cnc(-c2ccc(Cl)c(C(=O)O)n2)c(F)c1 [F208, 5-Chloro-3′-fluoro-5′-methyl-[2,2′-bipyridine]-6-carboxylic acid] | 0 to 29 |

same assay, conditions: post-emergence, 336 h, rice (Oryza sativa), 14 Days After Application, 140 g ai/ha, read-out: Visual Growth Reduction (%) ORYSA

| Structure (SMILES) | pest or weed control at 140 g/ha [%] |
| --- | --- |
| COC(=O)c1nc(-c2ccc(C(F)(F)F)cc2Cl)cc(C#N)c1Cl [F11, Methyl 3-chloro-6-(2-chloro-4-(trifluoromethyl)phenyl)-4-cyanopicolinate] | 0 to 29 |

same assay, conditions: post-emergence, 336 h, wheat, spring (Triticum aestivum), 14 Days After Application, 140 g ai/ha, read-out: Visual Growth Reduction (%) TRZAS

| Structure (SMILES) | pest or weed control at 140 g/ha [%] |
| --- | --- |
| COC(=O)c1nc(-c2ccc(C(F)(F)F)cc2Cl)cc(C#N)c1Cl [F11, Methyl 3-chloro-6-(2-chloro-4-(trifluoromethyl)phenyl)-4-cyanopicolinate] | 0 to 29 |

same assay, conditions: post-emergence, 336 h, wild oat (Avena fatua), 14 Days After Application, 140 g ai/ha, read-out: Visual Growth Reduction (%) AVEFA

| Structure (SMILES) | pest or weed control at 140 g/ha [%] |
| --- | --- |
| Cc1cnc(-c2ccc(Cl)c(C(=O)O)n2)c(F)c1 [F208, 5-Chloro-3′-fluoro-5′-methyl-[2,2′-bipyridine]-6-carboxylic acid] | 0 to 29 |

same assay, conditions: post-emergence, 336 h, yellow nutsedge (Cyperus esculentus), 14 Days After Application, 140 g ai/ha, read-out: Visual Growth Reduction (%) CYPES

| Structure (SMILES) | pest or weed control at 140 g/ha [%] |
| --- | --- |
| Cc1cnc(-c2ccc(Cl)c(C(=O)O)n2)c(F)c1 [F208, 5-Chloro-3′-fluoro-5′-methyl-[2,2′-bipyridine]-6-carboxylic acid] | 0 to 29 |
